SMILES strings stand for the structures.

A short description of data set [1]: Trolox equivalent antioxidant capacity (TEAC). Type of data set: biochemical. The following applies: Trolox equivalents per millimole of compound; mean ± SD. Here is the method: (§1) Three different methods were performed to determine the antioxidant capacity of both apigenins. The Trolox equivalent antioxidant capacity (TEAC) was performed, as previously reported to establish the ABTS^·+ scavenging ability of both compounds [21]. The TEAC of the samples was calculated from the standard curve of Trolox, and the results are expressed in micromoles of Trolox equivalents (TE) per millimole of compound. The ferric reducing antioxidant power (FRAP) assay was performed, as described elsewhere. The reduction of a ferric-tripyridyltriazine complex was estimated, and the results are expressed in micromoles of Fe^2+ per millimole of compound. To assay the capacity of the compounds to scavenge peroxyl radicals, a validated assay of the oxygen radical absorbance capacity (ORAC) method was used. The ORAC assay was carried out on a microplate reader (POLAstar Omega, BMG LabTech GmbH, Offenburg, Germany) with 495 nm excitation and 520 nm emission filters to monitor fluorescein oxidation. The results are expressed in micromoles of TE per millimole of compound.

The nature of data set [2]: Ferric reducing antioxidant power (FRAP). Type of data set: biochemical. The following applies: mean ± SD. How it is done:
as §1

The nature of data set [3]: Oxygen radical absorbance capacity (ORAC). Type of data set: biochemical. The following applies: Trolox equivalents per millimole of compound; mean ± SD. Here is the method:
as §1

Data set [4] can be described thus: Caco-2 cell monolayer bidirectional permeability. Type of data set: in vitro ADME. The following applies: human. How it is done: The cells were seeded into 6-well inserts with a polyethylene terephthalate (PET) membrane (pore size of 0.4 µm) (BD Falcon) at a density of 1.0 × 10^5 cells. Cell culture was maintained at 37 °C under 90% humidity and 5% CO2. The medium was replaced every 2–3 days for both the apical (AP) and basolateral (BL) chambers of the transwell filters. Cell monolayers were used 19–21 days after seeding, once confluence and differentiation were achieved. To check the integrity of each cell monolayer, the transepithelial electrical resistance (TEER) was measured before and after the experiments with an epithelial voltohmmeter (Millicell-ERS®). Permeability studies were performed by adding apigenin and apigenin-K at a concentration of 50 µM dissolved in HBSS medium (pH 7.4). The transport experiment was initiated by removing the culture medium from the AP and BL chambers. HBSS medium was prewarmed to wash the Caco-2 monolayers twice and, subsequently, to incubate the monolayers for 30 min at 37 °C. Afterwards, the test compounds were added to the apical (AP) or basolateral (BL) chambers to perform bidirectional permeability studies, while the receiving chamber contained the corresponding volume of HBSS. The six-well plate containing the cell monolayers was put into an orbital environmental shaker, which was set at a constant temperature (37 °C) and agitation rate (54 rpm) for the duration of the permeability experiments. […] The apparent permeability (Papp) values for each compound and direction can be calculated according to the following equation:(2) Papp= dQ/dt×1/A×C0×60 where Papp is the apparent permeability (cm/s), dQ/dt is the steady state flux, A is the diffusion area of the membrane (cm^2), C0 is the initial compound concentration in the donor compartment (µM) and 60 is a conversion factor [54]. […] In addition, the efflux ratio (ER) was calculated to determine the absorption mechanism, such as the ratio of Papp (BL-AP) to Papp (AP-BL). (3) ER= Papp (BL-AP)/Papp (AP-BL) The analyses of the samples from the permeability assay were analyzed via a high-performance liquid chromatograph Agilent LC 1100 series (Agilent Technologies, Inc., Palo Alto, CA, USA) controlled by the ChemStation software and equipped with a pump, autosampler, column oven and UV-Vis diode array detector. The samples were separated on a Poroshell 120 SB-C18 column (2.7 µm, 4.6 × 150 mm) after each 10 µL injection and were monitored at 280 nm. […] Quantitative evaluations of the apigenin or apigenin-K concentration were performed using the corresponding calibration graph of each compound with a six-point regression curve (r^2 > 0.999).
(In general: Caco-2 monolayers are a common model of the intestinal barrier.)

The next data set deals with Caco-2 cell monolayer. On the set-up: method as in PMID 29186068. The following applies: Caco-2 cell model; cited from earlier work.

As a reminder, the efflux ratio is the permeability from basolateral to apical divided by that in the opposite direction, in the common usage. By Papp A→B is commonly meant how fast a substance crosses the layer from the apical side. High values mean ready permeation, low ones poor permeation. One may read the Papp B→A as the apparent permeability from the basolateral to the apical side of a cell layer. Broadly, the Papp is the rate of passage across a membrane or cell layer, normalised by area and donor concentration. For the compound `O=c1cc(-c2ccc(O)cc2)oc2cc(O)cc(O)c12` [Apigenin, 4′,5,7-trihydroxyflavone], in data set [1], the TEAC was 2022.2 ± 154.8 µmol TE/mmol. This compound returned an FRAP in data set [2] of 113.2 ± 12.2 µmol Fe^2+/mmol. Besides, in data set [3], the ORAC amounted to 887.9 ± 5.8 µmol TE/mmol. Further, the efflux ratio at 120 min, 50 µM in data set [4] (Caco-2, pH 7.4, Papp (BL-AP)/Papp (AP-BL)) was 0.51. Besides, in data set [4] (Caco-2, apical-to-basolateral, 50 µM, HBSS pH 7.4, 120 min, mean of 6 replicates ± SD), the Papp A→B at 120 min, 50 µM worked out at 18.1 ± 1.7 ×10⁻⁶ cm/s. The apparent permeability from basolateral to apical (Papp B→A) at 120 min, 50 µM in data set [4] (Caco-2, basolateral-to-apical, 50 µM, HBSS pH 7.4, 120 min, mean of 6 replicates ± SD) turned out to be 9.3 ± 1.3 ×10⁻⁶ cm/s. In addition, in data set [4] (pH 7.4, Caco-2 cell model, read-out: apparent permeability (Papp)), the Papp at 120 min, 50 µM stood at 18.1 ×10⁻⁶ cm/s. In the data set on Caco-2 cell monolayer, the “apparent permeability relative to its flavonol kaempferol” value is given as 2.5 fold.

The record behind these values is article PMC6539602, “Antioxidant and Photoprotective Activity of Apigenin and Its Potassium Salt Derivative in Human Keratinocytes and Absorption in Caco-2 Cell Monolayers” (International Journal of Molecular Sciences, 2019).
